The source of these data is patent publication US6900193B1, “Structural modification of 19-norprogesterone I: 17-α-substituted-11-β-substituted-4-aryl and 21-substituted 19-norpregnadienedione as new antiprogestational agents” (The United States of America as represented by the …, priority 1996, dated 2005).

In assay [1] the target is T1, progesterone receptor (estrogen-primed rabbit uterus) (Oryctolagus cuniculus, UniProt P06186).
T1 construct: preparation of cytosols for the progesterone and glucocorticoid receptor assays; from tissue; host or cells: uterus of estradiol-primed immature female New Zealand White rabbits (cytosol)
T1 sequence (P06186 1-930): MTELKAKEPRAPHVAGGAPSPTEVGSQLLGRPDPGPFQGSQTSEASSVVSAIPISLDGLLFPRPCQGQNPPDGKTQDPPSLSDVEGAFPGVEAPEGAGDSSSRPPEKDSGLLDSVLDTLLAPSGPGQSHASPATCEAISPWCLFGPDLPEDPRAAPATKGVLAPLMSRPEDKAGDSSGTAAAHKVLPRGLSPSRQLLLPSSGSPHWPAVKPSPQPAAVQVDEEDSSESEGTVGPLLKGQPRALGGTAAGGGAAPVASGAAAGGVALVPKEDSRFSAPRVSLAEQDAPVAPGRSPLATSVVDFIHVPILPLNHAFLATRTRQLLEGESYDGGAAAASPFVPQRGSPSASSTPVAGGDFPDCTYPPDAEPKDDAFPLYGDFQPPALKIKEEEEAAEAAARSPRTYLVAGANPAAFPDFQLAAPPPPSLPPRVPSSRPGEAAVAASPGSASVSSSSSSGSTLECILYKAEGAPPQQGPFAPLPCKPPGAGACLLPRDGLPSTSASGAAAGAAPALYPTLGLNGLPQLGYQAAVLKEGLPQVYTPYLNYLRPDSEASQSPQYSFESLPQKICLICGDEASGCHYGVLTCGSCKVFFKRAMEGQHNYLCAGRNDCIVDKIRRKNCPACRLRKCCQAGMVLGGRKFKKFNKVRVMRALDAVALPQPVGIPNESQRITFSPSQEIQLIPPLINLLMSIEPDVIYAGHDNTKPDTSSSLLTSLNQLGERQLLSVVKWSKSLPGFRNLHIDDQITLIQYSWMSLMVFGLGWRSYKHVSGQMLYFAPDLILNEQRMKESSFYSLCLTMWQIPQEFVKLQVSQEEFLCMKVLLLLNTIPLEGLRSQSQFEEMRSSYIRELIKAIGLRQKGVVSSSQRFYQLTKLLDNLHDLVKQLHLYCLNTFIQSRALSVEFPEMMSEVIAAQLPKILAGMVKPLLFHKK
As to the kind of experiment: Relative binding affinity, progesterone receptor. The following applies: for RELATIVE BINDING AFFINITY Progesterone / BINDING AFFINITY Progester: progesterone = 100%; for binding affinity for the progesterone receptor, in words: rabbit uterine, versus CDB-2914 (69B) where stated; for BINDING AFFINITY Progester: Table 2; for binding affinities compared with the standard, compound 69B: progesterone receptor implied (rabbit or human isoform A not specified).

The test system of assay [2] is progesterone-induced endometrial proliferation. Description: AntiMcGinty test. The class given is in vivo, rabbit. The following applies: for antiprogestational activity compared with the lead compound / standard, in words: antiMcGinty (and antiClauberg), versus CDB-2914 (69B); for ANTIPROGESTATIONAL ACTIVITY ANTI-MCGINITY / ANTIPROGESTATIONAL Anti-McGinty: intraluminal; for ANTIPROGESTATIONAL ACTIVITY ANTI-MCGINITY: estrogen-primed immature rabbits, CDB-2477 = 1.0 (assigned); for ANTIPROGESTATIONAL Anti-McGinty: relative potency, CDB-2914 = 100 (assigned), rabbit. How it is done:
AntiMcGinty Test (McGinty, et al., Endocrinology, 24:829-832 (1939))
Immature female rabbits of the New Zealand White breed (approx. 1 kg body weight) were maintained under standard laboratory conditions and received a subcutaneous injection of 5 μg estradiol in 10% ethanol/sesame oil daily for 6 consecutive days. Twenty-four hours after the last injection of estradiol (day 7) animals underwent sterile abdominal surgery to ligate a 3-4 cm segment of both uterine horns. The experimental compound in appropriate solvent (usually 10% ethanol/sesame oil) was injected intraluminally into the ligated segment of one uterine horn and the vehicle alone into the ligated segment of the contralateral horn. Injection volume was limited to 0.1 ml, and care was taken to prevent leakage. A stimulating dose of progesterone (0.8 mg/day) was administered subcutaneously to each rabbit daily for the next three days (days 7, 8 and 9) for the purpose of inducing endometrial proliferation. All animals were sacrificed on day 10 when a segment central to the ligatures was removed and fixed in 10% neutral buffered formalin and submitted for histological processing. Five micron sections stained with hematoxylin and eosin (H&E) were evaluated microscopically for the degree of endometrial glandular proliferation according to the method of McPhail (McPhail, J. Physiol., 83:145 (1934). The percent inhibition of endometrial proliferation for each rabbit was calculated and the mean of the group of five animals recorded.

With `CC(=O)O[C@]1(C(=O)CO)CCC2C3CCC4=CC(=O)CCC4=C3C(c3ccc(N(C)C)cc3)C[C@@]21C` (stereo partly drawn) [Compound 41, 17α-acetoxy-21-hydroxy-11β-[4-(N,N-dimethylamino)phenyl]-19-norpregna-4,9-diene-3,20-dione], the “RELATIVE BINDING AFFINITY Progesterone” value in assay [1] (estrogen-primed rabbit uterus) is listed as 62%.
Turning to `CC#C[C@]1(O)CC[C@H]2[C@@H]3CCC4=CC(=O)CCC4=C3[C@@H](c3ccc(N(C)C)cc3)C[C@@]21C` [mifepristone], the “binding affinity for the progesterone receptor, in words” value (“binding affinity … in words” for short) in assay [1] is “greater binding affinity”. In addition, in assay [2], the “antiprogestational activity compared with the lead compound / standard, in words” value was “more potent than the standard” and the “ANTIPROGESTATIONAL ACTIVITY ANTI-MCGINITY” value is recorded as 1.0.
In the case of `COCC(=O)[C@@]1(OC)CC[C@H]2[C@@H]3CCC4=CC(=O)CCC4=C3[C@@H](c3ccc(N(C)C)cc3)C[C@@]21C` [Compound 113a, 17α,21-Dimethoxy-11β-[4-(N,N-dimethylamino)phenyl]-19-norpregna-4,9-diene-3,20-dione], the “BINDING AFFINITY Progester” value in assay [1] (estrogen-primed rabbit uterus) amounted to 117%. For the same molecule, in assay [1], the “binding affinities compared with the standard, compound 69B” value was “binding affinities greater than that observed for the standard” and the “binding affinity … in words” value was “high binding affinity”.
With `CC(=O)OCC(=O)[C@@]1(OC(C)=O)CC[C@H]2[C@@H]3CCC4=CC(=O)CCC4=C3[C@@H](c3ccc(C(C)=O)cc3)C[C@@]21C` [Compound 106b, 17α,21-Diacetoxy-11β-(4-acetylphenyl)19-norpregna-4,9-diene-3,20-dione], in assay [1] (estrogen-primed rabbit uterus), the “BINDING AFFINITY Progester” value worked out at 136%. For the same molecule, the “binding affinities compared with the standard, compound 69B” value in assay [1] was “binding affinities greater than that observed for the standard”.
As for `COCC(=O)C1(OC(C)=O)CCC2C3CCC4=CC(=O)CCC4=C3C(c3ccc(N4CCCCC4)cc3)CC21C` (stereo not drawn) [Compound 123a, 17α-Acetoxy-1113-[4-(N-piperidino)phenyl]-21-methoxy-19-norpregna-4,9-diene-3,20-dione], the “BINDING AFFINITY Progester” value in assay [1] (estrogen-primed rabbit uterus) amounted to 174%.
As for `CC(=O)O[C@]1(C(C)=O)CC[C@H]2[C@@H]3CCC4=CC(=O)CCC4=C3[C@@H](c3ccc(N4CCCCC4)cc3)C[C@@]21C` [Compound 71, 17α-Acetoxy-11β-[4(N-Piperidino)phenyl]-19-norpregna-4,9-diene-3,20-dione], the “BINDING AFFINITY Progester” value in assay [1] (estrogen-primed rabbit uterus) came out at 123%. In assay [1], the “binding affinities compared with the standard, compound 69B” value is on record as “binding affinities greater than that observed for the standard”.
In the case of `CC(=O)O[C@]1(C(=O)CCl)CCC2C3CCC4=CC(=O)CCC4=C3C(c3ccc(N(C)C)cc3)C[C@@]21C` (some centres unmarked) [Compound 14A], the “RELATIVE BINDING AFFINITY Progesterone” value in assay [1] (estrogen-primed rabbit uterus) was 127%. Also, in assay [1], the “binding affinities compared with the standard, compound 69B” value was “binding affinities greater than that observed for the standard” and the “binding affinity … in words” value is on record as “did not show significant differences”. In assay [2], the “antiprogestational activity compared with the lead compound / standard, in words” value is reported as “did not show significant differences” and the “ANTIPROGESTATIONAL Anti-McGinty” value is 75.
Take `CC(=O)O[C@]1(C(=O)CF)CCC2C3CCC4=CC(=O)CCC4=C3C(c3ccc(N(C)C)cc3)C[C@@]21C` (stereo partly drawn) [Compound 13, 17α-acetoxy-21-fluoro-11β-[4-(N,N-dimethylamino)phenyl]-19-norpregna-4,9-diene-3,20-dione]: in assay [1] (estrogen-primed rabbit uterus), the “RELATIVE BINDING AFFINITY Progesterone” value was determined as 125%. In addition, in assay [1], the “binding affinities compared with the standard, compound 69B” value was “binding affinities greater than that observed for the standard” and the “binding affinity … in words” value was “did not show significant differences”. Further, in assay [2], the “antiprogestational activity compared with the lead compound / standard, in words” value is listed as “did not show significant differences” and the “ANTIPROGESTATIONAL Anti-McGinty” value was determined as 103.
With `CC(=O)O[C@]1(C(C)=O)CC[C@H]2[C@@H]3CCC4=CC(=O)CCC4=C3[C@@H](c3ccc(N(C)C)cc3)C[C@@]21C` [Compound 69B, 17α-acetoxy-11β-(4-N,N-dimethylaminophenyl)-19-norpregna-4,9-diene-3,20-dione, reference compound], in assay [1] (estrogen-primed rabbit uterus), the “BINDING AFFINITY Progester” value is listed as 122% and the “RELATIVE BINDING AFFINITY Progesterone” value is 122%. The “RELATIVE BINDING AFFINITY Progesterone” value in assay [1] (Table 3, immature estrogen-primed rabbit uterus) is 114- %. For the same molecule, in assay [2], the “ANTIPROGESTATIONAL ACTIVITY ANTI-MCGINITY” value was 0.56 and the “ANTIPROGESTATIONAL Anti-McGinty” value came out at 100.
As to `CN(C)c1ccc(C2CC3(C)C(CCC34OCC4=O)C3CCC4=CC(=O)CCC4=C23)cc1` (stereo not drawn) [Compound 12, 17-Spirooxetano-3′-oxo-11β-[4-(N,N-dimethylamino)phenyl]-19-norpregna-4,9-dien-3-one], the “RELATIVE BINDING AFFINITY Progesterone” value in assay [1] (estrogen-primed rabbit uterus) stood at 261%. Moreover, in assay [1], the “binding affinities compared with the standard, compound 69B” value was “binding affinities greater than that observed for the standard”. Further, in assay [2], the “ANTIPROGESTATIONAL Anti-McGinty” value was 26.
Take `CC(=O)OCC(=O)[C@@]1(OC(C)=O)CCC2C3CCC4=CC(=O)CCC4=C3C(c3ccc(N(C)C)cc3)C[C@@]21C` (stereo partly drawn) [Compound 15, 17α,21-diacetoxy-11β-[4-(N,N-dimethylamino)phenyl]-19-norpregna-4,9-diene-3,20-dione]: the “RELATIVE BINDING AFFINITY Progesterone” value in assay [1] (estrogen-primed rabbit uterus) came to 103%. The “ANTIPROGESTATIONAL Anti-McGinty” value in assay [2] is reported as 300.
